# Assay results taken from US20050147565A1, “Pharmaceutical compositions for the treatment of asthma” (Schering Corporation, priority 2001, published 2005).
# Legend:
# [1] = Andersen Cascade Impactor particle size distribution of the emitted dose of the metered dose inhaler; assay type: physicochemical; conditions: Formoterol/Mometasone 6/50 μg/actuation inhaler
# Description: The formulations of the present invention were further analyzed using an Andersen Cascade Impactor as described in Examples 6 and 7. The Andersen Cascade Impactor is widely used for measuring the particle size distribution of airborne particles and more specifically pharmaceutical aerosols. The eight stage Andersen Impactor separates the sample into nine size intervals when used with a backup filter after the last impaction stage. In FIGS. 1 to 4, this corresponds Stage 0 of particles having a particle size less than 10 μm to a particle size of 0.65-0.43 μm in stage 8, with the final stage corresponding to the filter for particles less than 0.43 μm. The measurement of the particle size at the “throat” in the figures corresponds to the entry port of the Impactor. The fine particle fraction is defined as the percentage of particles having a particle size of less than 4.7 μm. The fine particle dose is defined as the amount in μg per dose that is less than 4.7 μm in size in each actuation. The μg/shot is the total amount of emitted drug product that exits the metered dose inhaler upon actuation. The determination of the particle size distribution of the emitted dose of the formulation using an Andersen Cascade Impactor is known to one of skill in the art.
# A formulation containing 6 μg of formoterol fumarate and 50 μg of mometasone furoate using HFA 227 in the absence of a bulking agent or carrier in a metered dose inhaler was analyzed by an Andersen Cascade Impactor to 5 analyze the amount of active drug ingredients and the particle size of the actives exiting the inhaler over time. […] The metered dose for both actives over time was also within acceptable limits (62.9 to 63.3 for mometasone and 6.6 to 6.5 for formoterol at the 4 month point). […]
# A formulation containing 6 μg of formoterol fumarate and 50 μg of mometasone furoate using HFA 134a with lactose as a bulking agent in a metered dose inhaler was analyzed by an Andersen Cascade Impactor to analyze the amount of active drug ingredients and the particle size of the actives exiting the inhaler over time. […] Additionally, the metered dose actually delivered was also maintained over time within acceptable limits (64.1 to 63.7 for mometasone, 6.9 to 6.6 for formoterol). The fine particle fraction for both mometasone and formoterol was maintained within acceptable limits.
# [2] = cited from earlier work
# [3] = Drug Content Uniformity (DCU) through the life of a 120 dose MDI; assay type: physicochemical; conditions: Formoterol/Mometasone 6/50 μg/actuation inhaler
# Description: The Drug Content Uniformity (DCU) of the inhaler was measured throughout the life of a 120 dose MDI to ascertain whether there was a consistency of dose of the active ingredients throughout the life of the product. Five canisters of each formulation (HFA 227 or HFA 134a) were analyzed and each canister delivered 120 actuations of medication and the amount of actives exiting the inhaler per actuation was measured at varying actuations, e.g., numbers 11, 12, 13, 14, (beginning) 59, 60, 61, 62 (middle) and 117, 118, 119 and 120 (end). Means were determined for the beginning, middle and end actuations, and an overall mean was determined and set forth in Examples 9 and 10 above.
# [4] = cited from earlier work; remark: listed apart in the source
# [5] = Percent change in fine particle size after temperature cycling; assay type: physicochemical
# Description: A finer particle size distribution of the mometasone furoate improves the fine particle fraction of the formulation exiting the inhaler upon actuation of the metered dose inhaler. […] The aerodynamic particle size distribution is well within the range of a typical efficacious topical lung medication, e.g., greater than 50% of the particles are less than 4.7 microns.
# [6] = HFA 134a, low bulking agent (lactose), 1 Month, 4 C./40 C.
# [7] = HFA 134a, low bulking agent (lactose), 1 Month, 40 C./75%
# [8] = HFA 134a, low bulking agent (lactose), 3 Month, 4 C./40 C.
# [9] = HFA 134a, low bulking agent (lactose), 4 Month, 25 C./60%
# [10] = HFA 134a, low bulking agent (lactose), 4 Month, 40 C./75%
# [11] = HFA 134a, low bulking agent (lactose), Initial
# [12] = HFA 227, without bulking agent, 1 Month, 4 C./40 C.
# [13] = HFA 227, without bulking agent, 1 Month, 40 C./75%
# [14] = HFA 227, without bulking agent, 3 Month, 4 C./40 C.
# [15] = HFA 227, without bulking agent, 4 Month, 25 C./60%
# [16] = HFA 227, without bulking agent, 4 Month, 40 C./75%
# [17] = HFA 227, without bulking agent, Initial
structure (smiles),measurement,setting,value
"C[C@@H]1C[C@H]2[C@@H]3CCC4=CC(=O)C=C[C@]4(C)[C@@]3(Cl)[C@@H](O)C[C@]2(C)[C@@]1(OC(=O)c1ccco1)C(=O)CCl [Mometasone Furoate, 9,21-Dichloro-11(beta), 17-dihydroxy-16(alpha)-methylpregna-1,4-diene-3,20-dione 17-(2 furoate)]",Fine Particle Dose (μg/shot),[1]; [6],10.6 μg/shot
same,Fine Particle Fraction %,[1]; [6],20.1%
same,MMAD (microns),[1]; [6],4.3 microns
same,μg/shot (metered dose),[1]; [6],65.0 μg/shot
same,Fine Particle Dose (μg/shot),[1]; [7],10.1 μg/shot
same,Fine Particle Fraction %,[1]; [7],20.1%
same,MMAD (microns),[1]; [7],4.3 microns
same,μg/shot (metered dose),[1]; [7],62.2 μg/shot
same,Fine Particle Dose (μg/shot),[1]; [8],10.0 μg/shot
same,Fine Particle Fraction %,[1]; [8],20.0%
same,MMAD (microns),[1]; [8],4.6 microns
same,μg/shot (metered dose),[1]; [8],62.6 μg/shot
same,Fine Particle Dose (μg/shot),[1]; [9],11.4 μg/shot
same,Fine Particle Fraction %,[1]; [9],22.6%
same,MMAD (microns),[1]; [9],4.3 microns
same,μg/shot (metered dose),[1]; [9],62.1 μg/shot
same,Fine Particle Dose (μg/shot),[1]; [10],8.8 μg/shot
same,Fine Particle Fraction %,[1]; [10],17.7%
same,MMAD (microns),[1]; [10],4.5 microns
same,μg/shot (metered dose),[1]; [10],63.7 μg/shot
same,Fine Particle Dose (μg/shot),[1]; [11],13.6 μg/shot
same,Fine Particle Fraction %,[1]; [11],25.7%
same,MMAD (microns),[1]; [11],3.9 microns
same,μg/shot (metered dose),[1]; [11],64.1 μg/shot
same,Fine Particle Dose (μg/shot),[1]; [12],9.2 μg/shot
same,Fine Particle Fraction %,[1]; [12],16.4%
same,MMAD (microns),[1]; [12],5.0 microns
same,μg/shot (metered dose),[1]; [12],62.6 μg/shot
same,Fine Particle Dose (μg/shot),[1]; [13],13.9 μg/shot
same,Fine Particle Fraction %,[1]; [13],25.3%
same,MMAD (microns),[1]; [13],4.1 microns
same,μg/shot (metered dose),[1]; [13],62.4 μg/shot
same,Fine Particle Dose (μg/shot),[1]; [14],5.3 μg/shot
same,Fine Particle Fraction %,[1]; [14],9.8%
same,MMAD (microns),[1]; [14],6.3 microns
same,μg/shot (metered dose),[1]; [14],60.5 μg/shot
same,Fine Particle Dose (μg/shot),[1]; [15],16.1 μg/shot
same,Fine Particle Fraction %,[1]; [15],30.4%
same,MMAD (microns),[1]; [15],4.2 microns
same,μg/shot (metered dose),[1]; [15],61.5 μg/shot
same,Fine Particle Dose (μg/shot),[1]; [16],10.4 μg/shot
same,Fine Particle Fraction %,[1]; [16],18.6%
same,MMAD (microns),[1]; [16],4.6 microns
same,μg/shot (metered dose),[1]; [16],63.3 μg/shot
same,Fine Particle Dose (μg/shot),[1]; [17],19.7 μg/shot
same,Fine Particle Fraction %,[1]; [17],36.5%
same,MMAD (microns),[1]; [17],3.7 microns
same,μg/shot (metered dose),[1]; [17],62.9 μg/shot
same,solubility in acetone,[2]; acetone,soluble
same,solubility in chloroform,[2]; chloroform,soluble
same,solubility in ethanol,[2]; ethanol,slightly soluble
same,solubility in isopropanol,[2]; isopropanol,slightly soluble
same,solubility in methanol,[2]; methanol,slightly soluble
same,solubility in tetrahydrofuran,[2]; tetrahydrofuran,freely soluble
same,solubility in water,[2]; water,practically insoluble
same,Overall Mean μg/shot,"[3]; HFA 134a, low bulking agent, 1 Month, 4 C./40 C.",55.7 μg/shot
same,Overall Mean μg/shot,"[3]; HFA 134a, low bulking agent, 1 Month, 40 C./75%",57.0 μg/shot
same,Overall Mean μg/shot,"[3]; HFA 134a, low bulking agent, Initial",59.1 μg/shot
same,Overall Mean μg/shot,"[3]; HFA 227, no bulking agent, 1 Month, 4 C./40 C.",55.6 μg/shot
same,Overall Mean μg/shot,"[3]; HFA 227, no bulking agent, 1 Month, 40 C./75%",54.9 μg/shot
same,Overall Mean μg/shot,"[3]; HFA 227, no bulking agent, Initial",54.7 μg/shot
same,partition coefficient between octanol and water,[4],greater than 5000
same,percent change in fine particle size,"[5]; grade of mometasone used in Example 6 (coarse), two weeks of temperature cycling at −10° C. and 40° C.",about 50%
same,percent change in fine particle size,"[5]; similar mdi using mometasone furoate alone, finer grade of mometasone furoate, same cycling conditions (two weeks, −10° C. and 40° C.)",≤ 15%
